Activity calls are given as the source filed them. The rule behind the calls is not given here.

These results are taken from ChEMBL document CHEMBL4418306, “Quinolinone lysyl oxidase-like 2 inhibitors and uses thereof” (2017).

The experiment concerns Mus musculus. Description: Antifibrotic activity in C57BL/6 mouse model of bleomycin-induced lung fibrosis assessed as reduction in collagen level in lung at 60 mg/kg, po pre-treated 1 hr to 1 day before bleomycin injection and measured after 14 to 28 days by hydroxyproline assay. In kind it is functional, organism-based.

With `NCc1cc(=O)c2cc(Br)ccc2[nH]1`, the result was Active.
